The text below walks through data of patent publication US6093409A (Societe L'Oreal S.A., priority 1996, dated 2000).

This assay is described as follows: "Hp-squalene" anti(singlet oxygen ^1 O2) test. The format is biochemical. Conditions: 0.03% solutions.

With `COc1cc2c(CCNC(C)=O)c[nH]c2cc1O` [6-Hydroxymelatonin], the “% INHIBITION” value was roughly 78%. Further, for the setting “comparison in words”, the “percentage of inhibition compared with melatonin and the other reference singlet-oxygen inhibitors” value was “higher than that obtained for melatonin and the other reference singlet-oxygen inhibitors”.
For `CC1=C(/C=C/C(C)=C/C=C/C(C)=C/C=C/C=C(C)/C=C/C=C(C)/C=C/C2=C(C)C(=O)[C@@H](O)CC2(C)C)C(C)(C)C[C@H](O)C1=O` [Astaxanthin], the “% INHIBITION” value came out at 34%.
Regarding `CC1=C(/C=C/C(C)=C/C=C/C(C)=C/C=C/C=C(C)/C=C/C=C(C)/C=C/C2=C(C)C(=O)CCC2(C)C)C(C)(C)CCC1=O` [Cantaxanthin], the “% INHIBITION” value was 67%.
On the same count and under the same terms, the result for `O=c1c(O)c(-c2ccc(O)c(O)c2)oc2cc(O)cc(O)c12` [Quercetin] reads 72%; that for `C[C@@H]1O[C@@H](OC[C@H]2O[C@@H](Oc3c(-c4ccc(O)c(O)c4)oc4cc(O)cc(O)c4c3=O)[C@H](O)[C@@H](O)[C@@H]2O)[C@H](O)[C@H](O)[C@H]1O` [Rutin], 51%; that for `CC1=C(/C=C/C(C)=C/C=C/C(C)=C/C=C/C=C(C)/C=C/C=C(C)/C=C/C2=C(C)CCCC2(C)C)C(C)(C)CCC1` [β-Carotene], 62%.
